{
  "source": "ChEMBL document CHEMBL1150178",
  "about": "“Two toxic kaurene glycosides from the burrs of Xanthium pungens” (J Nat Prod, 1990)",
  "key": {"[1]": {"tested_on": "Mus musculus", "assay": "Toxicity in mouse at 3 mg/kg, ip", "assay_type": "organism-based", "set-up": "dose 3 mg/kg, route intraperitoneal", "details": "in vivo"}, "[2]": {"tested_on": "Rattus norvegicus", "assay": "Toxicity in Wistar rat at 3 mg/kg", "assay_type": "organism-based", "set-up": "dose 3 mg/kg", "details": "in vivo"}},
  "data": [
    {"molecule": "C=C1[C@@H]2CC[C@H]3[C@]4(C)C[C@H](O[C@@H]5O[C@H](CO)[C@@H](O)[C@H](O)[C@H]5OC(=O)CC(C)C)CC(C(=O)O)(C(=O)O)[C@H]4CC[C@]3(C2)[C@H]1O", "values": [
      {"measurement": "Activity", "setting": "[1]", "result": "Toxic"},
      {"measurement": "Activity", "setting": "[2]", "result": "Toxic"}
    ]},
    {"molecule": "C=C1[C@@H]2CC[C@H]3[C@]4(C)C[C@H](O[C@@H]5O[C@H](CO)[C@@H](O)[C@H](O)[C@H]5OC(=O)CC(C)CC)CC(C(=O)O)(C(=O)O)[C@H]4CC[C@]3(C2)[C@H]1O", "note": "(some centres undefined)", "values": [
      {"measurement": "Activity", "setting": "[1]", "result": "Toxic"},
      {"measurement": "Activity", "setting": "[2]", "result": "Toxic"}
    ]}
  ]
}
